Test results published in patent US9326506B2, “Preparation method, agricultural composition and applications of natural brassinolide analogs” (CHENGDU NEWSUN CROPSCIENCE CO., LTD, priority 2012, dated 2016).

Test system: rice
Assay: Low temperature assay on rice seedlings
Format: in vivo
Description: According to a low temperature assay, we measured parameters including plant height, number of leaf, area of leaf, number of tiller, weight of root at low temperature to completely determine effects of the natural brassinolide analogues on the resistance to low temperature of a plant.
The natural brassinolide analogues, BR1, BR2, BR3, BR4, BR5 and BR6, used herein, were those prepared by the method of Example 1. Respectively the analogues were dissolved into 95% (V/V) ethanol solution, and then diluted with pure water to 1 mg/L, 0.1 mg/L, 0.01 mg/L, 0.001 mg/L and 0.0001 mg/L. In addition, pure water was used as a control.
After rice seeds were disinfected by using 5% sodium hypochlorite solution treatment, they were rinsed with distilled water until their pH>7, placed into a petri dish in a dark incubator, and cultured by using water at 30° C.±2° C. for 9 days. Then respectively the nine-day-old etiolated seedlings of rice were immersed in the above solutions containing different concentrations of the natural brassinolide analogues or pure water, and cultured at the temperature of 1° C., 2° C., 3° C., 4° C. and 5° C. for 24 hr. The parameters including plant height, area of leaf and weight of root after 3, 6, 9 and 12 days and number of leaf and number of tiller after 12 days were measured.

## CC(C)C[C@@H](O)[C@H](O)[C@@H](C)[C@H]1CCC2C3CC(=O)C4C[C@H](O)[C@H](O)C[C@]4(C)C3CC[C@@]21C (some centres unmarked) [BR5]
0.01 mg/l, 3 °C, 9 days
  Height: 7.5 cm
  Weight of root: 2.7 g
0.01 mg/l, 3 °C, 12 days
  Area of leaf: 13.2 cm^2
  Height: 7.9 cm
  Number of leaf: 3
  Number of tiller: 2
  Weight of root: 2.9 g
0.01 mg/l, 4 °C, 3 days
  Area of leaf: 10.8 cm^2
  Height: 7.1 cm
  Weight of root: 2.5 g
0.01 mg/l, 4 °C, 6 days
  Area of leaf: 12.4 cm^2
  Height: 7.5 cm
  Weight of root: 2.6 g
0.01 mg/l, 4 °C, 9 days
  Area of leaf: 13.1 cm^2
  Height: 7.6 cm
  Weight of root: 2.9 g
0.01 mg/l, 4 °C, 12 days
  Area of leaf: 13.5 cm^2
  Height: 7.8 cm
  Number of leaf: 3
  Number of tiller: 2
  Weight of root: 3.0 g
0.01 mg/l, 5 °C, 3 days
  Area of leaf: 10.3 cm^2
  Height: 7.4 cm
  Weight of root: 2.8 g
0.01 mg/l, 5 °C, 6 days
  Area of leaf: 13.1 cm^2
  Height: 7.4 cm
  Weight of root: 3.0 g
0.01 mg/l, 5 °C, 9 days
  Area of leaf: 16.4 cm^2
  Height: 8 cm
  Weight of root: 3.4 g
0.01 mg/l, 5 °C, 12 days
  Area of leaf: 17 cm^2
  Height: 8.2 cm
  Number of leaf: 4
  Number of tiller: 3
  Weight of root: 3.6 g
0.1 mg/l, 1 °C, 3 days
  Area of leaf: 10.1 cm^2
  Height: 7.0 cm
  Weight of root: 2.8 g
0.1 mg/l, 1 °C, 6 days
  Area of leaf: 11 cm^2
  Height: 7.2 cm
  Weight of root: 3.0 g
0.1 mg/l, 1 °C, 9 days
  Area of leaf: 12 cm^2
  Height: 7.2 cm
  Weight of root: 3.4 g
0.1 mg/l, 1 °C, 12 days
  Area of leaf: 13.4 cm^2
  Height: 7.4 cm
  Number of leaf: 3
  Number of tiller: 3
  Weight of root: 3.4 g
0.1 mg/l, 2 °C, 3 days
  Area of leaf: 10.4 cm^2
  Height: 7.1 cm
  Weight of root: 2.8 g
0.1 mg/l, 2 °C, 6 days
  Area of leaf: 11.2 cm^2
  Height: 7.3 cm
  Weight of root: 3.0 g
0.1 mg/l, 2 °C, 9 days
  Area of leaf: 12.4 cm^2
  Height: 7.3 cm
  Weight of root: 3.1 g
0.1 mg/l, 2 °C, 12 days
  Area of leaf: 13.6 cm^2
  Height: 7.4 cm
  Number of leaf: 3
  Number of tiller: 3
  Weight of root: 3.2 g
0.1 mg/l, 3 °C, 3 days
  Area of leaf: 10.5 cm^2
  Height: 7.4 cm
  Weight of root: 2.5 g
0.1 mg/l, 3 °C, 6 days
  Area of leaf: 12 cm^2
  Height: 7.4 cm
  Weight of root: 2.7 g
0.1 mg/l, 3 °C, 9 days
  Area of leaf: 12.6 cm^2
  Height: 7.9 cm
  Weight of root: 2.7 g
0.1 mg/l, 3 °C, 12 days
  Area of leaf: 13.4 cm^2
  Height: 7.9 cm
  Number of leaf: 3
  Number of tiller: 2
  Weight of root: 2.9 g
0.1 mg/l, 4 °C, 3 days
  Area of leaf: 10.8 cm^2
  Height: 7.5 cm
  Weight of root: 2.5 g
0.1 mg/l, 4 °C, 6 days
  Area of leaf: 12.1 cm^2
  Height: 7.5 cm
  Weight of root: 2.7 g
0.1 mg/l, 4 °C, 9 days
  Area of leaf: 13.2 cm^2
  Height: 8 cm
  Weight of root: 2.9 g
0.1 mg/l, 4 °C, 12 days
  Area of leaf: 13.8 cm^2
  Height: 8 cm
  Number of leaf: 3
  Number of tiller: 2
  Weight of root: 3 g
0.1 mg/l, 5 °C, 3 days
  Area of leaf: 11 cm^2
  Height: 7.5 cm
  Weight of root: 2.9 g
0.1 mg/l, 5 °C, 6 days
  Area of leaf: 12.9 cm^2
  Height: 7.6 cm
  Weight of root: 3.2 g
0.1 mg/l, 5 °C, 9 days
  Area of leaf: 16.8 cm^2
  Height: 8 cm
  Weight of root: 3.5 g
0.1 mg/l, 5 °C, 12 days
  Area of leaf: 19 cm^2
  Height: 8.3 cm
  Number of leaf: 3
  Number of tiller: 2
  Weight of root: 4.1 g
1 mg/l, 1 °C, 3 days
  Area of leaf: 10 cm^2
  Height: 7.0 cm
  Weight of root: 2.6 g
1 mg/l, 1 °C, 6 days
  Area of leaf: 11.2 cm^2
  Height: 7.3 cm
  Weight of root: 3.1 g
1 mg/l, 1 °C, 9 days
  Area of leaf: 12.4 cm^2
  Height: 7.3 cm
  Weight of root: 3.1 g
1 mg/l, 1 °C, 12 days
  Area of leaf: 13 cm^2
  Height: 7.9 cm
  Number of leaf: 3
  Number of tiller: 3
  Weight of root: 3.7 g
1 mg/l, 2 °C, 3 days
  Area of leaf: 10.2 cm^2
  Height: 7.1 cm
  Weight of root: 2.6 g
1 mg/l, 2 °C, 6 days
  Area of leaf: 11.7 cm^2
  Height: 7.2 cm
  Weight of root: 3.0 g
1 mg/l, 2 °C, 9 days
  Area of leaf: 12.6 cm^2
  Height: 7.2 cm
  Weight of root: 3.2 g
1 mg/l, 2 °C, 12 days
  Area of leaf: 12.8 cm^2
  Height: 7.8 cm
  Number of leaf: 3
  Number of tiller: 3
  Weight of root: 3.7 g
1 mg/l, 3 °C, 3 days
  Area of leaf: 10.4 cm^2
  Height: 7.2 cm
  Weight of root: 2.5 g
1 mg/l, 3 °C, 6 days
  Area of leaf: 12 cm^2
  Height: 7.5 cm
  Weight of root: 2.6 g
1 mg/l, 3 °C, 9 days
  Area of leaf: 12.1 cm^2
  Height: 7.6 cm
  Weight of root: 2.8 g
1 mg/l, 3 °C, 12 days
  Area of leaf: 13 cm^2
  Height: 8.1 cm
  Number of leaf: 3
  Number of tiller: 2
  Weight of root: 2.9 g
1 mg/l, 4 °C, 3 days
  Area of leaf: 10.9 cm^2
  Height: 7.2 cm
  Weight of root: 2.5 g
1 mg/l, 4 °C, 6 days
  Area of leaf: 12.6 cm^2
  Height: 7.5 cm
  Weight of root: 2.7 g
1 mg/l, 4 °C, 9 days
  Area of leaf: 13.2 cm^2
  Height: 7.8 cm
  Weight of root: 3.1 g
1 mg/l, 4 °C, 12 days
  Area of leaf: 13.4 cm^2
  Height: 8.2 cm
  Number of leaf: 3
  Number of tiller: 2
  Weight of root: 3.2 g
1 mg/l, 5 °C, 3 days
  Area of leaf: 11.1 cm^2
  Height: 7.3 cm
  Weight of root: 2.9 g
1 mg/l, 5 °C, 6 days
  Area of leaf: 13.1 cm^2
  Height: 7.7 cm
  Weight of root: 3.5 g
1 mg/l, 5 °C, 9 days
  Area of leaf: 18 cm^2
  Height: 8 cm
  Weight of root: 3.6 g
1 mg/l, 5 °C, 12 days
  Area of leaf: 20 cm^2
  Height: 8.4 cm
  Number of leaf: 3
  Number of tiller: 2
  Weight of root: 4.5 g
In vivo
  Effects on resistance to low temperature compared among analogues: more than those of BR2, BR3 and BR4
